This passage reports MIC90 results from ChEMBL document CHEMBL4665731, “Antifungal trichothecene sesquiterpenes obtained from the culture broth of marine-derived Trichoderma cf. brevicompactum and their structure-activity relationship” (2020).

Values after ≈ are worked out from the molar mass of the structure shown.

What all share (type): functional
One experiment deals with Candida albicans. The experiment is described as follows: Antifungal activity against Candida albicans NBRC1594 assessed as reduction in fungal growth incubated for 24 hrs by CLSI broth microdilution method.
Another experiment concerns Cryptococcus neoformans. The experiment in a line: Antifungal activity against Cryptococcus neoformans ATCC 14116 assessed as reduction in fungal growth incubated for 72 hrs by CLSI broth microdilution method. In general terms: Dilution methods test growth across graded concentrations, often in twofold steps.
The test system of another experiment is Aspergillus fumigatus. The experiment is described as follows: Antifungal activity against Aspergillus fumigatus NBRC 96918 assessed as reduction in fungal growth incubated for 48 hrs by CLSI broth microdilution method.
The test system of another experiment is Rhizopus arrhizus. The experiment in a line: Antifungal activity against Rhizopus oryzae NBRC 31005 assessed as reduction in fungal growth incubated for 24 hrs by CLSI broth microdilution method.

As a reminder, the MIC90 is an inhibitory concentration at the 90% level, which refers to growth in some studies and to a panel of isolates in others. Take `C[C@@H]1[C@H](O)[C@@H](C)/C=C/C=C/C=C/C=C/C=C/C=C/C=C/[C@H](O[C@@H]2O[C@H](C)[C@@H](O)[C@H](N)[C@@H]2O)C[C@@H]2O[C@](O)(C[C@@H](O)C[C@@H](O)[C@H](O)CC[C@@H](O)C[C@@H](O)CC(=O)O[C@H]1C)C[C@H](O)[C@H]2C(=O)O` [AMPHOTERICIN B]: the MIC90 in the experiment with Candida albicans is 0.5 µg/mL (≈ 0.541 µM); in the experiment on Cryptococcus neoformans, 1 µg/mL (≈ 1.08 µM); with Aspergillus fumigatus it was 2 µg/mL (≈ 2.16 µM); in the experiment on Rhizopus arrhizus it was 1 µg/mL (≈ 1.08 µM).
